Measured values published in patent US9011956B2, “Natural high-potency sweetener compositions with improved temporal profile and/or flavor profile, methods for their formulation, and uses” (The Coca-Cola Company, priority 2005, dated 2015).
Blank lines part the entries; values can stand above or below the compound they belong to.

How the values were obtained:
[1] = Sweetness linger sensory evaluation by expert panel (protocol of Example A); format: in vivo, human; parameters: key: 0=no sweetness linger; 1=very slight sweetness linger; 2=slight sweetness linger; 3=moderate sweetness linger; 4=moderately high sweetness linger; 5=high sweetness linger
Protocol: In a particular embodiment, a panel of assessors is used to measure the reduction of sweetness linger. Briefly described, a panel of assessors (generally 8 to 12 individuals) is trained to evaluate sweetness perception and measure sweetness at several time points from when the sample is initially taken into the mouth until 3 minutes after it has been expectorated. […] A decrease in score for a time point measured after the sample has cleared the mouth indicates there has been a reduction in sweetness perception.
Generally, the method of measuring sweetness comprises taking a 10 mL sample into the mouth, holding the sample in the mouth for 5 seconds and gently swirling the sample in the mouth, rating the sweetness intensity perceived at 5 seconds, expectorating the sample (without swallowing following expectorating the sample), rinsing with one mouthful of water (e.g., vigorously moving water in mouth as if with mouth wash) and expectorating the rinse water, rating the sweetness intensity perceived immediately upon expectorating the rinse water, waiting 45 seconds and, while waiting those 45 seconds, identifying the time of maximum perceived sweetness intensity and rating the sweetness intensity at that time (moving the mouth normally and swallowing as needed), rating the sweetness intensity after another 10 seconds, rating the sweetness intensity after another 60 seconds (cumulative 120 seconds after rinse), and rating the sweetness intensity after still another 60 seconds (cumulative 180 seconds after rinse). Between samples take a 5 minute break, rinsing well with water to clear the mouth.
(§1) An exemplary method of sensory evaluation is provided in the following protocol, similar to that described hereinabove. In this test protocol, none of the samples were swallowed. All samples were expectorated and the mouth was rinsed with water after the tasting. In step 1, the 10% sucrose control sample was tasted by distributing ca. 10 mL of sample quickly throughout the oral cavity, wherein the maximal “Sweetness Intensity” was measured. This intensity is defined as a 10 on a 0-15 scale where 0 is defined as no perceptible sweetness and 15, the sweetness of 15% sucrose. Immediately upon sensing maximal sweetness, the sample was expectorated, the mouth was rinsed with water and the rate of sweetness decay (“Sweetness Linger”) was measured, where attention was focused on the sweetness 3-4 min after the water rinse. The sweetness linger was rated by a panel of experts in the sensory evaluation of foods and beverages using the following scale: 0=no sweetness linger, 1=very slight sweetness linger, 2=slight sweetness linger, 3=moderate sweetness linger, 4=moderately high sweetness linger, 5=high sweetness linger. After sample tasting was complete, a salty oyster cracker was chewed followed by a water rinse, and at least 5 minutes followed before tasting the next sample.
The “Sweetness Linger” rating for sucrose observed by this protocol was defined as 0. Experimental samples were tasted by the same protocol, always allowing sufficient time between samples to ensure re-equilibration of the sensory system. Re-tasting of control samples during the course of the experiment was allowed and encouraged.
The comparison taste test was performed between two controls and addition of sweet taste improving additive on the onset and/or sweetness linger.
Where there are ranges provided in the examples, a number of beverages comprising the NHPS, such as rebaudioside-A (REBA), were made 5-7 levels from the top to the bottom range, using a 1:1 dilution of the corresponding sweet taste improving compositions. The sweetness linger rating reported was the most sugar-like in sweetness linger (the lowest numerical value) attained of all the samples (i.e., the shortest sweetness linger). The tasting protocol and sensory scores described in the exemplary protocol of Example A were used in the Examples of Set B. […]

[2] = Sweetness level as sucrose equivalent; format: in vivo, human
Protocol: as §1

[3] = format: physicochemical
Protocol: A solution of rebaudioside A (>97% pure by HPLC) was prepared in double distilled water (12.5 gm in 50 mL, 25% concentration) by stirring the mixture at 40° C. for 5 minutes. An amorphous form of rebaudioside A was formed by immediately using the clear solution for spray drying with the Lab-Plant spray drier SD-04 instrument (Lab-Plant Ltd., West Yorkshire, U.K.). The solution was fed through the feed pump into the nozzle atomizer which atomized it into a spray of droplets with the help of a constant flow of nitrogen/air. […] This dry powder (11-12 g, H2O 6.74%) was discharged continuously from the drying chamber and was collected in a bottle.

Compound: OC[C@H]1O[C@@](CO)(O[C@H]2O[C@H](CO)[C@@H](O)[C@H](O)[C@H]2O)[C@@H](O)[C@@H]1O [sugar, sucrose]
sweetness linger rating ([1]; control: 8 g of sugar in 100 ml of citrate buffer): 0
sweetness linger rating ([1]; control: 10 g in 100 ml of carbon treated water): 0
sweetness linger rating ([1]; control: 10 g of sugar in 100 ml carbon treated water, phosphoric acid to pH 2.4-2.5): 0

Compound: rebaudioside A
sweetness linger rating ([1]; control: 400 ppm REBA in citric acid/potassium citrate composition equivalent to diet lemon-lime beverage): 5
sweetness linger rating ([1]; control: 500 ppm REBA in carbon-treated water, phosphoric acid to pH 2.4-2.5): 5
sucrose equivalent of sweetness ([2]; 180 ppm REBA): 5 % sucrose
sucrose equivalent of sweetness ([2]; 400 ppm REBA in citric acid/potassium citrate composition): 8 g sucrose

solubility in water at room temperature [3]: > 35.0%
Compound: rebaudioside A [Form 4]

Compound: mono-ammonium glycyrrhizic acid salt hydrate
sweetness linger ([1]; control: 375 mg in one liter of carbon-treated water): 5
sweetness level ([2]; 375 mg in one liter of carbon-treated water): 4 % sucrose equivalent
